Test results reported in patent publication US20220033418A1, “HETEROCYCLENE DERIVATIVES AS PEST CONTROL AGENTS” (Bayer Aktiengesellschaft, priority 2018, published 2022).

Key:
Myzus persicae [1] = test: Myzus persicae spray test (MYZUPE), comparative, bell pepper plants; format: in vivo; details: 144 h, 6 dat (days after treatment), read-out: % Efficacy MYZUPE
Procedure: Myzus persicae—Spray Test (MYZUPE) Solvent: 14 parts by weight of dimethylformamide Emulsifier: alkylaryl polyglycol ether To produce a suitable active compound formulation, 1 part by weight of active compound is dissolved using the stated parts by weight of solvent and made up with water containing an emulsifier concentration of 1000 ppm until the desired concentration is attained. To produce further test concentrations, the formulation is diluted with emulsifier-containing water. If the addition of ammonium salts or/and penetrants is required, these are each added in a concentration of 1000 ppm to the formulation solution. Bell pepper plants (Capsicum annuum) severely infested with the green peach aphid (Myzus persicae) are treated by spraying with the active compound formulation in the desired concentration. After the desired time, the kill in % is determined. 100% means that all the animals have been killed; 0% means that no animals have been killed.

Diabrotica balteata [2] = test: Diabrotica balteata drench test (DIABBA), comparative; format: in vivo; details: soil, 192 h, 8 dat (days after treatment), read-out: % Efficacy DIABBA
Procedure: Diabrotica balteata—Drench Test (DIABBA) Solvent: 7 parts by weight of dimethylformamide Emulsifier: 2 parts by weight of alkylaryl polyglycol ether To produce a suitable active compound preparation, 1 part by weight of active compound is mixed with the specified amounts of solvent and emulsifier, and the concentrate is diluted with water to the desired concentration, it being necessary to include the volume of soil which is drenched in the calculation. It should be ensured that a concentration of 40 ppm of emulsifier in the soil is not exceeded. To produce further test concentrations, water is used for dilution. In each case 5 […] (Zea mays) are sown into pots filled with earth, and the next day the pots are watered with the active compound preparation of the desired concentration. After one day, about 25 L2 larvae of the banded cucumber beetle (Diabrotica balteata) are added. After 8 days, the efficacy in % is determined. 100% means that all 5 plants have germinated and grown; 0% means that none of the plants has emerged.

Diabrotica balteata [3] = test: Diabrotica balteata spray test; format: in vivo; details: 500 g/ha (=160 μg/cavity), after 7 days
Procedure: Diabrotica balteata—Spray Test Solvent: 78 parts by weight of acetone • • 1.5 parts by weight of dimethylformamide Emulsifier: alkylaryl polyglycol ether To produce a suitable active compound formulation, 1 part by weight of active compound is dissolved using the stated parts by weight of solvent and made up with water containing an emulsifier concentration of 1000 ppm until the desired concentration is attained. To produce further test concentrations, the formulation is diluted with emulsifier-containing water. Pre-swollen wheat grains (Triticum aestivum) are incubated in a multiwell plate filled with agar and a little water for one day (5 seed grains per cavity). The germinated wheat grains are sprayed with an active compound formulation of the desired concentration. Subsequently, each cavity is infected with 10-20 beetle larvae of Diabrotica balteata. After 7 days, the efficacy in % is determined. 100% means that all wheat plants have grown as in the untreated, uninfected control; 0% means that no wheat plant has grown.

Spodoptera frugiperda = Spodoptera frugiperda spray test; format: in vivo; details: 100 g/ha, corn leaf disks, after 7 days
Procedure: Spodoptera frugiperda—Spray Test Solvent: 78.0 parts by weight of acetone • • 1.5 parts by weight of dimethylformamide Emulsifier: alkylaryl polyglycol ether To produce a suitable active compound formulation, 1 part by weight of active compound is dissolved using the stated parts by weight of solvent and made up with water containing an emulsifier concentration of 1000 ppm until the desired concentration is attained. To produce further test concentrations, the formulation is diluted with emulsifier-containing water. Leaf disks of corn (Zea mays) are sprayed with an active compound formulation of the desired concentration and, after drying, populated with caterpillars of the fall armyworm (Spodoptera frugiperda). After 7 days, the efficacy in % is determined. 100% means that all the caterpillars have been killed; 0% means that no caterpillar has been killed.

Myzus persicae [4] = test: Myzus persicae oral test; format: in vivo; details: 4 ppm, after 5 days
Procedure: Myzus persicae—Oral Test Solvent: 100 parts by weight of acetone To produce a suitable active compound formulation, 1 part by weight of active compound is dissolved using the specified parts by weight of solvent and made up with water until the desired concentration is attained. 50 μl of the active compound preparation are transferred into microtitre plates and made up to a final volume of 200 μl with 150 μl of IPL41 insect medium (33%+15% sugar). Subsequently, the plates are sealed with parafilm, which a mixed population of green peach aphids (Myzus persicae) within a second microtitre plate is able to puncture and imbibe the solution through. After 5 days, the efficacy in % is determined. 100% means that all the aphids have been killed; 0% means that no aphids have been killed.

[5] = log P by reversed-phase HPLC, acidic range; format: physicochemical; details: reversed-phase C18 HPLC column, formic acid in water/acetonitrile
Procedure: The log P values were determined according to EEC Directive 79/831 Annex V.A8 by HPLC (high-performance liquid chromatography) on a reversed-phase column (C18) using the following methods: ^[a] The log P value is determined by LC-UV measurement in the acidic range using 0.9 ml/1 formic acid in water and 1.0 ml/1 formic acid in acetonitrile as mobile phases (linear gradient from 10% acetonitrile to 95% acetonitrile). Calibration was carried out using a homologous series of straight-chain alkan-2-ones (having 3 to 16 carbon atoms) with known log P values. The values between successive alkanones are determined by linear regression.

Boophilus microplus = Boophilus microplus injection test; format: in vivo; details: 20 μg/animal, assessed after 7 days
Procedure: Boophilus microplus—Injection Test Solvent: dimethyl sulfoxide To produce a suitable active compound formulation, 10 mg of active compound are mixed with 0.5 ml of solvent and the concentrate is diluted to the desired concentration with solvent. 1 μl of the active compound solution is injected into the abdomen of 5 engorged adult female cattle ticks (Boophilus microplus). The animals are transferred into dishes and kept in a climate-controlled room. Efficacy is assessed after 7 days by laying of fertile eggs. Eggs which are not visibly fertile are stored in a climate-controlled cabinet until the larvae hatch after about 42 days. An efficacy of 100% means that none of the ticks has laid any fertile eggs; 0% means that all the eggs are fertile.

Ctenocephalides felis = Ctenocephalides felis oral test; format: in vivo; details: 100 ppm, oral via blood, after 2 days
Procedure: Ctenocephalides felis—Oral Test
Solvent: dimethyl sulfoxide
To produce a suitable active compound formulation, 10 mg of active compound are mixed with 0.5 ml of dimethyl sulfoxide. Dilution with citrated cattle blood gives the desired concentration.
About 20 unfed adult cat fleas (Ctenocephalides fells) are placed into a chamber which is closed at the top and bottom with gauze. A metal cylinder whose bottom end is closed with parafilm is placed onto the chamber. The cylinder contains the blood/active compound formulation, which can be imbibed by the fleas through the parafilm membrane.
After 2 days, the kill in % is determined. 100% means that all of the fleas have been killed; 0% means that none of the fleas have been killed.

Phaedon cochleariae = Phaedon cochleariae spray test; format: in vivo; details: 100 g/ha, Chinese cabbage leaf disks, after 7 days
Procedure: Phaedon cochleariae—Spray Test
Solvent: 78.0 parts by weight of acetone • • 1.5 parts by weight of dimethylformamide
Emulsifier: alkylaryl polyglycol ether
To produce a suitable active compound formulation, 1 part by weight of active compound is dissolved using the stated parts by weight of solvent and made up with water containing an emulsifier concentration of 1000 ppm until the desired concentration is attained. To produce further test concentrations, the formulation is diluted with emulsifier-containing water.
Disks of Chinese cabbage leaves (Brassica pekinensis) are sprayed with an active compound formulation of the desired concentration and, after drying, populated with larvae of the mustard beetle (Phaedon cochleariae).
After 7 days, the efficacy in % is determined. 100% means that all the beetle larvae have been killed; 0% means that no beetle larvae have been killed.

Myzus persicae [6] = test: Myzus persicae spray test (Chinese cabbage leaf disks); format: in vivo; details: 100 g/ha, after 5 days
Procedure: Myzus persicae—Spray Test Solvent: 78 parts by weight of acetone • • 1.5 parts by weight of dimethylformamide Emulsifier: alkylaryl polyglycol ether To produce a suitable active compound formulation, 1 part by weight of active compound is dissolved using the stated parts by weight of solvent and made up with water containing an emulsifier concentration of 1000 ppm until the desired concentration is attained. To produce further test concentrations, the formulation is diluted with emulsifier-containing water. Disks of Chinese cabbage leaves (Brassica pekinensis) infested by all stages of the green peach aphid (Myzus persicae) are sprayed with an active compound formulation of the desired concentration. After 5 days, the efficacy in % is determined. 100% means that all the aphids have been killed; 0% means that no aphids have been killed.

Compound | Emax at 0.8 ppm (Myzus persicae [1]) | Emax at 0.8 ppm (Diabrotica balteata [2]) | efficacy (Diabrotica balteata [3]) | efficacy (Spodoptera frugiperda) | efficacy (Myzus persicae [4]) | chromatographic logP [5] | efficacy (no laying of fertile eggs) (Boophilus microplus) | efficacy (kill in %) (Ctenocephalides felis) | efficacy (Phaedon cochleariae) | efficacy (Myzus persicae [6])
CCS(=O)(=O)c1c(-c2nc3cc(C(F)(F)F)cnc3n2C)nn2cc(C3(C#N)CC3)ccc12 [prior art according to WO2017/155103, reference compound] | 40% | 50% |  |  |  |  |  |  |  | 
CCS(=O)(=O)c1c(-c2nc3cc(OC(F)(F)F)ccc3n2C)nn2cc(C3(C#N)CC3)ccc12 [Example I-2, 1-[3-Ethylsulfonyl-2-[1-methyl-5-(trifluoromethoxy)benzimidazol-2-yl]pyrazolo[1,5-a]pyridin-6-yl]cyclopropanecarbonitrile] |  |  | 100% | 100% | 100% | 3.29 |  |  |  | 
CCS(=O)(=O)c1c(-c2nc3cc(OC(F)(F)C(F)(F)F)cnc3n2C)nn2cc(C3(C#N)CC3)ccc12 [Example I-5, 1-[3-Ethylsulfonyl-2-[3-methyl-6-(1,1,2,2,2-pentafluoroethoxy)imidazo[4,5-b]pyridin-2-yl]pyrazolo[1,5-a]pyridin-6-yl]cyclopropanecarbonitrile] |  |  | 100% | 100% |  | 3.76 |  |  |  | 
CCS(=O)(=O)c1c(-c2nc3cc4c(nc3n2C)OC(F)(F)O4)nn2cc(C3(C#N)CC3)ccc12 [Example I-4, 1-[3-Ethylsulfonyl-2-[2,2-difluoro-7-methyl-[1,3]dioxoloimidazo[4,5-b]pyridin-6-yl]pyrazolo[1,5-a]pyridin-6-yl]cyclopropanecarbonitrile] |  |  |  | 100% | 100% | 3.22 | 80% | 100% | 100% | 90%
CCS(=O)(=O)c1c(-c2nc3cc(OC(F)(F)F)cnc3n2C)nn2cc(C3(C#N)CC3)ccc12 [Example I-1, 1-[3-Ethylsulfonyl-2-[3-methyl-6-(trifluoromethoxy)imidazo[4,5-b]pyridin-2-yl]pyrazolo[1,5-a]pyridin-6-yl]cyclopropanecarbonitrile] | 100% | 80% |  | 100% | 100% | 3.18 |  | 100% | 100% | 100%
CCS(=O)(=O)c1c(-c2nc3cc4c(cc3n2C)OC(F)(F)O4)nn2cc(C3(C#N)CC3)ccc12 [Example I-3, 1-[2-(2,2-Difluoro-7-methyl-[1,3]dioxolo[4,5-f]benzimidazol-6-yl)-3-ethylsulfonylpyrazolo[1,5-a]pyridin-6-yl]cyclopropanecarbonitrile] |  |  | 100% | 100% | 100% | 3.18 |  |  |  | 
Cn1c(-c2nn3cc(C4(C#N)CC4)ccc3c2Br)nc2cc(OC(F)(F)F)cnc21 [1-[3-Bromo-2-[3-methyl-6-(trifluoromethoxy)imidazo[4,5-b]pyridin-2-yl]pyrazolo[1,5-a]pyridin-6-yl]cyclopropanecarbonitrile] |  |  |  |  |  | 3.9 |  |  |  | 
